The values that follow come from ChEMBL document CHEMBL3997778, “β-Dihydroagarofuran-Type Sesquiterpenes from the Seeds of Celastrus monospermus and Their Lifespan-Extending Effects on the Nematode Caenorhabditis elegans” (2016).

Experiment [1] concerns Caenorhabditis elegans. Put plainly: Increase in life span of Caenorhabditis elegans Bristol N2 at late L4 larval stage at 50 uM in presence of 5-fluorodesoxyuridine relative to control. The format is functional.
Experiment [2] deals with Caenorhabditis elegans. The experiment is described as follows: Increase in life span of Caenorhabditis elegans Bristol N2 at late L4 larval stage at 100 uM in presence of 5-fluorodesoxyuridine relative to control. The format is functional.

For the molecule `CC(=O)OC[C@]12[C@@H](OC(=O)c3ccccc3)[C@@H](OC(C)=O)[C@@H]3[C@@H](OC(C)=O)[C@]1(OC3(C)C)[C@H](C)C[C@H](OC(C)=O)[C@@H]2OC(C)=O`, in experiment [1], the ILS at 50 µM was determined as 16%.
On the same count and under the same terms, the figure for `CC(=O)O[C@H]1[C@@H]2[C@@H](OC(=O)c3ccccc3)[C@]3(OC2(C)C)[C@H](C)C[C@@H](OC(C)=O)[C@H](OC(C)=O)[C@@]3(C)[C@H]1OC(=O)c1ccccc1` is 28%; for `CC(=O)O[C@@H]1[C@@H]2[C@@H](OC(C)=O)[C@]3(OC2(C)C)[C@H](C)C[C@H](OC(=O)/C=C/c2ccccc2)[C@H](OC(C)=O)[C@@]3(C)[C@@H]1OC(=O)c1ccccc1` it is 15%; for `CC(=O)O[C@@H]1[C@@H]2[C@@H](OC(C)=O)[C@]3(OC2(C)C)[C@H](C)CC(=O)[C@H](OC(C)=O)[C@@]3(C)[C@@H]1OC(=O)c1ccccc1` it is 37%.
Take `CC(=O)O[C@H]1[C@@H]2C[C@]3(OC2(C)C)[C@H](C)C[C@H](OC(C)=O)[C@@H](OC(C)=O)[C@@]3(C)[C@H]1OC(=O)c1ccccc1`: in experiment [1], the ILS at 50 µM is 12%.
Same read-out and setting: as for `CC(=O)O[C@H]1[C@@H]2[C@@H](OC(C)=O)[C@]3(OC2(C)C)[C@H](C)C[C@@H](OC(C)=O)[C@H](OC(C)=O)[C@@]3(C)[C@H]1OC(=O)c1ccccc1`, the figure is 15%; as for `CC(=O)O[C@@H]1[C@H]2C[C@H](OC(=O)c3ccccc3)[C@]3(C)[C@@H](OC(C)=O)[C@H](OC(C)=O)C[C@@H](C)[C@@]13OC2(C)C`, 14%.
The same measure, in the same setting: as for `CC(=O)O[C@@H]1[C@@H]2[C@@H](OC(C)=O)[C@]3(OC2(C)C)[C@H](C)C[C@@H](OC(C)=O)[C@H](OC(C)=O)[C@@]3(C)[C@@H]1OC(=O)c1ccccc1`, the figure is 17%.
For the molecule `CC(=O)O[C@@H]1[C@@H]2[C@@H](OC(C)=O)[C@]3(OC2(C)C)[C@H](C)CC[C@H](O)[C@@]3(C)[C@@H]1OC(=O)c1ccccc1`, the ILS at 50 µM in experiment [1] stood at 16%.
Take `CO[C@H]1C[C@@H]2CC[C@@H](C)[C@@](O)(O2)C(=O)C(=O)N2CCCC[C@H]2C(=O)O[C@H]([C@H](C)C[C@@H]2CC[C@@H](O)[C@H](OC)C2)CC(=O)[C@H](C)/C=C(\C)[C@@H](O)[C@@H](OC)C(=O)[C@H](C)C[C@H](C)/C=C/C=C/C=C/1C` [SIROLIMUS]: in experiment [2], the ILS at 100 µM was determined as 38%.
